Tested on: MDA-MB-468 spheroids with HUVEC/MSC, viability
Assay: Anticancer human tumor MDA-MB-468 cell line growth inhibition [PI3K];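 also: spheroids exposed to agents for seven days before readout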;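 as to viability, T/C: 100% = DMSO vehicle control viability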
Conditions: for IC50: curve of first compound; for viability, T/C: stronger effect = lower value
How it was run: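 Spheroid viability read-out. Co-cultures contained the tumor line plus HUVEC and human MSCs. Each agent was paired with a PI3K inhibitor (inavolisib, alpelisib, duvelisib, copanlisib) across half-log dilutions starting at clinical Cmax, or at 10 microM when Cmax was unknown.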

[1] = second compound 0.0316 µM, first compound 0.0316 µM
[2] = second compound 0.0316 µM, first compound 0.1 µM
[3] = second compound 0.0316 µM, first compound 0.316 µM
[4] = second compound 0.0316 µM, first compound 1 µM
[5] = second compound 0.0316 µM, first compound 3.16 µM
[6] = second compound 0.0316 µM, first compound 10 µM
[7] = second compound 0.1 µM, first compound 0.0316 µM
[8] = second compound 0.1 µM, first compound 0.1 µM
[9] = second compound 0.1 µM, first compound 0.316 µM
[10] = second compound 0.1 µM, first compound 1 µM
[11] = second compound 0.1 µM, first compound 3.16 µM
[12] = second compound 0.1 µM, first compound 10 µM
[13] = second compound 0.316 µM, first compound 0.0316 µM
[14] = second compound 0.316 µM, first compound 0.1 µM
[15] = second compound 0.316 µM, first compound 0.316 µM
[16] = second compound 0.316 µM, first compound 1 µM
[17] = second compound 0.316 µM, first compound 3.16 µM
[18] = second compound 0.316 µM, first compound 10 µM
[19] = second compound 1 µM, first compound 0.0316 µM
[20] = second compound 1 µM, first compound 0.1 µM
[21] = second compound 1 µM, first compound 0.316 µM
[22] = second compound 1 µM, first compound 1 µM
[23] = second compound 1 µM, first compound 3.16 µM
[24] = second compound 1 µM, first compound 10 µM
[25] = second compound 3.16 µM, first compound 0.0316 µM
[26] = second compound 3.16 µM, first compound 0.1 µM
[27] = second compound 3.16 µM, first compound 0.316 µM
[28] = second compound 3.16 µM, first compound 1 µM
[29] = second compound 3.16 µM, first compound 3.16 µM
[30] = second compound 3.16 µM, first compound 10 µM
[31] = second compound 10 µM, first compound 0.0316 µM
[32] = second compound 10 µM, first compound 0.1 µM
[33] = second compound 10 µM, first compound 0.316 µM
[34] = second compound 10 µM, first compound 1 µM
[35] = second compound 10 µM, first compound 3.16 µM
[36] = second compound 10 µM, first compound 10 µM

Compound: CC1(C)CCC(Nc2ncc(C(F)(F)F)c(-c3c[nH]c4c(P(C)(C)=O)c(C#N)ccc34)n2)CN1 (stereo unspecified) + CC(Nc1ncnc2nc[nH]c12)c1cc2cccc(Cl)c2c(=O)n1-c1ccccc1
- IC50 (second compound 0.0316 µM): < 31.6 nM
- IC50 (second compound 0.1 µM): < 31.6 nM
- IC50 (second compound 0.316 µM): < 31.6 nM
- IC50 (second compound 1 µM): < 31.6 nM
- IC50 (second compound 3.16 µM): < 31.6 nM
- IC50 (second compound 10 µM): < 31.6 nM
- viability, T/C [1]: 11.2%
- viability, T/C [2]: 8.83%
- viability, T/C [3]: 8.44%
- viability, T/C [4]: 8.51%
- viability, T/C [5]: 9.51%
- viability, T/C [6]: 1.74%
- viability, T/C [7]: 12.5%
- viability, T/C [8]: 11.6%
- viability, T/C [9]: 8.64%
- viability, T/C [10]: 8.66%
- viability, T/C [11]: 8.77%
- viability, T/C [12]: 1.45%
- viability, T/C [13]: 11.2%
- viability, T/C [14]: 11%
- viability, T/C [15]: 9.67%
- viability, T/C [16]: 8.74%
- viability, T/C [17]: 9.29%
- viability, T/C [18]: 1.74%
- viability, T/C [19]: 12.8%
- viability, T/C [20]: 10.6%
- viability, T/C [21]: 9.64%
- viability, T/C [22]: 9.48%
- viability, T/C [23]: 9.76%
- viability, T/C [24]: 1.16%
- viability, T/C [25]: 11.8%
- viability, T/C [26]: 10.2%
- viability, T/C [27]: 11.1%
- viability, T/C [28]: 9.71%
- viability, T/C [29]: 7.09%
- viability, T/C [30]: 1.3%
- viability, T/C [31]: 12.6%
- viability, T/C [32]: 10.8%
- viability, T/C [33]: 10%
- viability, T/C [34]: 10%
- viability, T/C [35]: 7.06%
- viability, T/C [36]: 1.03%

Compound: CC1(C)CCC(CN2CCN(c3ccc(C(=O)NS(=O)(=O)c4ccc(NCC5CCOCC5)c([N+](=O)[O-])c4)c(Oc4cnc5[nH]ccc5c4)c3)CC2)=C(c2ccc(Cl)cc2)C1 + Cc1nc(NC(=O)N2CCCC2C(N)=O)sc1-c1ccnc(C(C)(C)C(F)(F)F)c1
- IC50 (second compound 0.0316 µM): 4010 nM
- IC50 (second compound 0.1 µM): 4590 nM
- IC50 (second compound 0.316 µM): 3260 nM
- IC50 (second compound 1 µM): 3800 nM
- IC50 (second compound 3.16 µM): 2120 nM
- IC50 (second compound 10 µM): < 31.6 nM
- viability, T/C [1]: 93.8%
- viability, T/C [2]: 110%
- viability, T/C [3]: 85.9%
- viability, T/C [4]: 103%
- viability, T/C [5]: 61%
- viability, T/C [6]: 8.14%
- viability, T/C [7]: 85.3%
- viability, T/C [8]: 92.4%
- viability, T/C [9]: 80.2%
- viability, T/C [10]: 104%
- viability, T/C [11]: 69.9%
- viability, T/C [12]: 8.59%
- viability, T/C [13]: 110%
- viability, T/C [14]: 105%
- viability, T/C [15]: 97.5%
- viability, T/C [16]: 88.7%
- viability, T/C [17]: 50.2%
- viability, T/C [18]: 7.04%
- viability, T/C [19]: 99.7%
- viability, T/C [20]: 72.3%
- viability, T/C [21]: 99.9%
- viability, T/C [22]: 85.4%
- viability, T/C [23]: 58.1%
- viability, T/C [24]: 7.9%
- viability, T/C [25]: 77.8%
- viability, T/C [26]: 61.8%
- viability, T/C [27]: 54%
- viability, T/C [28]: 66.3%
- viability, T/C [29]: 43.3%
- viability, T/C [30]: 9.97%
- viability, T/C [31]: 35.2%
- viability, T/C [32]: 27.1%
- viability, T/C [33]: 35.2%
- viability, T/C [34]: 32.4%
- viability, T/C [35]: 24.9%
- viability, T/C [36]: 8.18%

Compound: CCN1CCN(Cc2ccc(Nc3ncc(F)c(-c4cc(F)c5nc(C)n(C(C)C)c5c4)n3)nc2)CC1 + CC(Nc1ccc2c(c1)OCCn1cc(N3C(=O)OCC3C(F)F)nc1-2)C(N)=O
- IC50 (second compound 0.00316 µM): > 1000 nM
- IC50 (second compound 0.01 µM): > 1000 nM
- IC50 (second compound 0.0316 µM): > 1000 nM
- IC50 (second compound 0.1 µM): > 1000 nM
- IC50 (second compound 0.316 µM): 855 nM
- IC50 (second compound 1 µM): > 1000 nM
- viability, T/C (second compound 0.00316 µM, first compound 0.00316 µM): 94%
- viability, T/C (second compound 0.00316 µM, first compound 0.01 µM): 98.2%
- viability, T/C (second compound 0.00316 µM, first compound 0.0316 µM): 91.5%
- viability, T/C (second compound 0.00316 µM, first compound 0.1 µM): 103%
- viability, T/C (second compound 0.00316 µM, first compound 0.316 µM): 98.9%
- viability, T/C (second compound 0.00316 µM, first compound 1 µM): 70.1%
- viability, T/C (second compound 0.01 µM, first compound 0.00316 µM): 101%
- viability, T/C (second compound 0.01 µM, first compound 0.01 µM): 117%
- viability, T/C (second compound 0.01 µM, first compound 0.0316 µM): 83.4%
- viability, T/C (second compound 0.01 µM, first compound 0.1 µM): 100%
- viability, T/C (second compound 0.01 µM, first compound 0.316 µM): 94.5%
- viability, T/C (second compound 0.01 µM, first compound 1 µM): 70.5%
- viability, T/C (second compound 0.0316 µM, first compound 0.00316 µM): 103%
- viability, T/C (second compound 0.0316 µM, first compound 0.01 µM): 108%
- viability, T/C [1]: 99.2%
- viability, T/C [2]: 85.5%
- viability, T/C [3]: 104%
- viability, T/C [4]: 59.2%
- viability, T/C (second compound 0.1 µM, first compound 0.00316 µM): 106%
- viability, T/C (second compound 0.1 µM, first compound 0.01 µM): 95.5%
- viability, T/C [7]: 99.2%
- viability, T/C [8]: 105%
- viability, T/C [9]: 89.4%
- viability, T/C [10]: 54.3%
- viability, T/C (second compound 0.316 µM, first compound 0.00316 µM): 106%
- viability, T/C (second compound 0.316 µM, first compound 0.01 µM): 92.7%
- viability, T/C [13]: 79.9%
- viability, T/C [14]: 93.3%
- viability, T/C [15]: 84.6%
- viability, T/C [16]: 44.2%
- viability, T/C (second compound 1 µM, first compound 0.00316 µM): 108%
- viability, T/C (second compound 1 µM, first compound 0.01 µM): 81.7%
- viability, T/C [19]: 88.6%
- viability, T/C [20]: 88.3%
- viability, T/C [21]: 88.3%
- viability, T/C [22]: 51.8%

Source: PubChem BioAssay AID1963960 (Molecular Pharmacology Branch, DTP, NCI, 2024)
